This data set has as its system rodent carcinogenicity bioassays, tumor incidence. In words: CCRIS carcinogenicity studies. The essentials: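 Archive of carcinogenicity, mutagenicity, tumor promotion and tumor inhibition results drawn from journals, NCI reports and other sources, expert-reviewed; covers 1985-2011 and is no longer updated.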

The results in this text go back to PubChem BioAssay AID1259411 (Chemical Carcinogenesis Research Information System (CCRIS), 2018).

Calls of active or inactive are those of the source. The rule behind the calls is not given here.

On to `O=C(O)CCCOc1ccc(Cl)cc1Cl`, for which the carcinogen call was “inactive; negative” (Species: MOUSE, Strain/Sex: ICR/FEMALE, Route: ORAL, Dose: 0, 25, 250, 750 PPM IN DIET FOR 78 WK (STUDY DURATION: 78 WK), Dose: 0, 25, 250, 750 PPM IN DIET FOR 78 WK (STUDY DURATION: 78 WK)); “inactive; negative” (Species: MOUSE, Strain/Sex: ICR/MALE, Route: ORAL, Dose: 0, 25, 250, 750 PPM IN DIET FOR 78 WK (STUDY DURATION: 78 WK), Dose: 0, 25, 250, 750 PPM IN DIET FOR 78 WK (STUDY DURATION: 78 WK)); “inactive; negative” (Species: RAT, Strain/Sex: SPRAGUE-DAWLEY/FEMALE, Route: ORAL, Dose: 0, 60, 600, 1800 PPM IN DIET FOR 104 WK (STUDY DURATION: 104 WK), Dose: 0, 60, 600, 1800 PPM IN DIET FOR 104 WK (STUDY DURATION: 104 WK)); “inactive; negative” (Species: RAT, Strain/Sex: SPRAGUE-DAWLEY/MALE, Route: ORAL, Dose: 0, 60, 600, 1800 PPM IN DIET FOR 104 WK (STUDY DURATION: 104 WK), Dose: 0, 60, 600, 1800 PPM IN DIET FOR 104 WK (STUDY DURATION: 104 WK)).
For `O=P([O-])([O-])[O-].O=P([O-])([O-])[O-].[Pb+2].[Pb+2].[Pb+2]`, the carcinogen call was “active; positive” (Species: RAT, Strain/Sex: ALBINO, Route: SUBCUTANEOUS, Dose: 20 MG 1/WK FOR UP TO 16 MO (TOTAL DOSE 40-760 MG/RAT), Tumor Site: Type of Lesion: KIDNEY: ADENOMA, PAPILLOMA, CYSTADENOMA, CARCINOMA) and “active; positive” (Species: RAT, Strain/Sex: STRAIN-CB/MALE, Route: SUBCUTANEOUS/INTRAPERITONEAL, Dose: TOTAL DOSES 29, 145, 450 MG, Dose: TOTAL DOSES 29, 145, 450 MG, Tumor Site: Type of Lesion: KIDNEY: ADENOMA, ADENOCARCINOMA).
As for `Cc1cccc(C)c1N`, the carcinogen call was “active; positive” (Species: RAT, Strain/Sex: CD/FEMALE, Route: ORAL, Dose: 0, 300, 1000, 3000 PPM IN FEED FOR 102 WK (STUDY DURATION: 104 WK), Dose: 0, 300, 1000, 3000 PPM IN FEED FOR 102 WK (STUDY DURATION: 104 WK), Tumor Site: Type of Lesion: SUBCUTANEOUS TISSUE: FIBROMA, FIBROMA OR FIBROSARCOMA, NASAL CAVITY: PAPILLARY ADENOMA, ADENOMA OR PAPILLARY ADENOMA, CA) and “active; positive” (Species: RAT, Strain/Sex: CD/MALE, Route: ORAL, Dose: 0, 300, 1000, 3000 PPM IN FEED FOR 102 WK (STUDY DURATION: 104 WK), Dose: 0, 300, 1000, 3000 PPM IN FEED FOR 102 WK (STUDY DURATION: 104 WK), Tumor Site: Type of Lesion: SUBCUTANEOUS TISSUE: FIBROMA, FIBROMA OR NEUROFIBROMA, FIBROMA OR FIBROSARCOMA, NASAL CAVITY: PAPILLARY ADENOMA, CARCINO).
As to `O=P1(N(CCCl)CCCl)NCCCO1` (configuration not stated), the carcinogen call (Species: FISH, Strain/Sex: SHASTA RAINBOW TROUT/MALE, FEMALE, Route: ORAL, Dose: 0, 200 PPM IN DIET FOR 18 MO (STUDY DURATION: 18 MO)) was “inactive; negative”; the carcinogen call (Species: HUMAN, Route: ORAL, Tumor Site: Type of Lesion: URINARY BLADDER) is “active; positive”; the carcinogen call (Species: MOUSE, Strain/Sex: NMRI/FEMALE, Route: SUBCUTANEOUS, Dose: 0, 13, 26 MG/KG IN SALINE 1/WK FOR LIFETIME (STUDY DURATION: LIFETIME), Dose: 0, 13, 26 MG/KG IN SALINE 1/WK FOR LIFETIME (STUDY DURATION: LIFETIME), Tumor Site: Type of Lesion: LYMPHATIC SYSTEM: MALIGNANT LEUKEMIA) was “active; positive”; the carcinogen call (Species: MOUSE, Strain/Sex: NMRI/FEMALE, Route: SUBCUTANEOUS, Dose: 26 MG/KG 1/WK FOR 52 WK, Tumor Site: Type of Lesion: MAMMARY GLAND: CARCINOMA, MULTIPLE SITES: CARCINOMA, SARCOMA) is “active; positive”; the carcinogen call (Species: RAT, Strain/Sex: BR46/MALE, Route: INTRAVENOUS, Dose: 15 MG/KG 1/WK OR 5 DOSES OF 33 MG/KG EVERY 2 WK, Tumor Site: Type of Lesion: MULTIPLE SITES) was “active; positive”; the carcinogen call (Species: RAT, Strain/Sex: SPRAGUE-DAWLEY/MALE,FEMALE, Route: ORAL, Dose: 0.31, 0.63, 1.25, 2.5 MG/KG 5/WK, Dose: 0.31, 0.63, 1.25, 2.5 MG/KG 5/WK, Tumor Site: Type of Lesion: URINARY BLADDER: PAPILLOMA, TRANSITIONAL CELL CARCINOMA) was “active; positive”. Besides, under “Species: RAT, Strain/Sex: SPRAGUE-DAWLEY/MALE, Route: INTRAVENOUS, Dose: 13 MG/KG 1/WK, Tumor Site: Type of Lesion: MULTIPLE SITES”, the carcinogen call was “active; positive”.
With `[Cd]`, the carcinogen call is, setting by setting: (Species: HUMAN, Route: INHALATION, ORAL, DERMAL, Tumor Site: Type of Lesion: PROSTATE GLAND) “active; positive”; (Species: RAT, Strain/Sex: F344/MALE,FEMALE, Route: INTRAMUSCULAR, Dose: 5 MG GIVEN IN 2 INJECTIONS AT MONTHLY INTERVALS (STUDY DURATION: 12 MO), Tumor Site: Type of Lesion: INJECTION SITE: FIBROSARCOMA) “active; positive”; (Species: RAT, Strain/Sex: LONG-EVANS/FEMALE, Route: INTRAMUSCULAR, Dose: 14, 28 MG, Tumor Site: Type of Lesion: INJECTION SITE: RHABDOMYOSARCOMA, FIBROSARCOMA) “active; positive”.
Turning to `O=C(OOC(=O)c1ccccc1)c1ccccc1`, under “Species: MOUSE, Strain/Sex: SENCAR/FEMALE, Route: DERMAL, Dose: 0, 0.2 ML OF 100 MG/ML SOLUTION IN ACETONE 2 D/WK FOR 51 WK (STUDY DURATION: 52 WK), Tumor Site: Type of Lesion: SKIN: SQUAMOUS CELL CARCINOMA OR EPIDERMAL HYPERPLASIA”, the carcinogen call was “active; positive”.
For `O=Cc1ccco1`, the carcinogen call is, setting by setting: (Species: MOUSE, Strain/Sex: B6C3F1/FEMALE, Route: GAVAGE, Dose: 0, 50, 100, 175 MG/KG IN CORN OIL 5 D/WK FOR 103 WK (STUDY DURATION: 105 WK), Dose: 0, 50, 100, 175 MG/KG IN CORN OIL 5 D/WK FOR 103 WK (STUDY DURATION: 105 WK), Tumor Site: Type of Lesion: LIVER: HEPATOCELLULAR ADENOMA, HEPATOCELLULAR ADENOMA OR CARCINOMA, FORESTOMACH: SQUAMOUS PAPILLOMA) “active; positive”; (Species: MOUSE, Strain/Sex: B6C3F1/MALE, Route: GAVAGE, Dose: 0, 50, 100, 175 MG/KG IN CORN OIL 5 D/WK FOR 103 WK (STUDY DURATION: 105 WK), Dose: 0, 50, 100, 175 MG/KG IN CORN OIL 5 D/WK FOR 103 WK (STUDY DURATION: 105 WK), Tumor Site: Type of Lesion: LIVER: HEPATOCELLULAR ADENOMA, HEPATOCELLULAR CARCINOMA) “active; positive”; (Species: MOUSE, Strain/Sex: CD-1/FEMALE, Route: DERMAL, Dose: 0, 50 UMOL/0.1 ML DMSO 2/WK FOR 5 WK FOLLOWED 1 WK LATER BY 0.1 ML ACETONE 2/WK FOR 47 WK (STUDY DURATION: 52 WK)) “inactive; negative”; (Species: RAT, Strain/Sex: F344/FEMALE, Route: GAVAGE, Dose: 0, 30, 60 MG/KG IN CORN OIL 5 D/WK FOR 103 WK (STUDY DURATION: 105 WK), Dose: 0, 30, 60 MG/KG IN CORN OIL 5 D/WK FOR 103 WK (STUDY DURATION: 105 WK)) “inactive; negative”; (Species: RAT, Strain/Sex: F344/MALE, Route: GAVAGE, Dose: 0, 30, 60 MG/KG IN CORN OIL 5 D/WK FOR 103 WK (STUDY DURATION: 105 WK), Dose: 0, 30, 60 MG/KG IN CORN OIL 5 D/WK FOR 103 WK (STUDY DURATION: 105 WK), Tumor Site: Type of Lesion: BILE DUCT: CHOLANGIOCARCINOMA) “active; positive”.
As to `c1ccc2nc3c(ccc4ccccc43)cc2c1`, the carcinogen call reads like this: (Species: MOUSE, Strain/Sex: SWISS/FEMALE, Route: INTRAPERITONEAL, Dose: 0, 1.05 UMOL GIVEN AS 150 NMOL IN 5 µL DMSO WITHIN 24 HR OF BIRTH, 300 NMOL IN 10 µL DMSO ON D 8 OF LIFE, AND 600 NMOL I, Tumor Site: Type of Lesion: LUNG: ADENOMA) “active; positive”; (Species: MOUSE, Strain/Sex: SWISS/MALE, Route: INTRAPERITONEAL, Dose: 0, 1.05 UMOL GIVEN AS 150 NMOL IN 5 µL DMSO WITHIN 24 HR OF BIRTH, 300 NMOL IN 10 µL DMSO ON D 8 OF LIFE, AND 600 NMOL I, Tumor Site: Type of Lesion: LUNG: ADENOMA, LIVER: NEOPLASTIC NODULE) “active; positive”; (Species: RAT, Strain/Sex: OSBORNE-MENDEL/FEMALE, Route: LUNG IMPLANT, Dose: 0, 0.1, 0.3, 1.0 MG IN BEESWAX/TRICAPRYLIN (STUDY DURATION: LIFETIME), Dose: 0, 0.1, 0.3, 1.0 MG IN BEESWAX/TRICAPRYLIN (STUDY DURATION: LIFETIME)) “inactive; negative”.
